Assay results from ChEMBL document CHEMBL1153072, “Synthesis and structure-activity relationship of dicationic diaryl ethers as novel potent anti-MRSA and anti-VRE agents” (2009).
≈ marks a conversion by molar mass, not a printed value.

How the values were obtained:
Format in all cases: functional
Staphylococcus aureus [1] = experiment: Antibacterial activity against Staphylococcus aureus ATCC 29213
Staphylococcus aureus [2] = experiment: Antibacterial activity against multidrug resistant Staphylococcus aureus BAA-39
Staphylococcus aureus [3] = experiment: Antibacterial activity against methicillin-resistant Staphylococcus aureus ATCC 33591
[4] = test system: Staphylococcus epidermidis; experiment: Antibacterial activity against Staphylococcus epidermidis ATCC 12228
[5] = test system: Staphylococcus epidermidis; experiment: Antibacterial activity against methicillin-resistant Staphylococcus epidermidis ATCC 51625
Streptococcus pneumoniae = experiment: Antibacterial activity against Streptococcus pneumoniae ATCC 6301
Enterococcus faecalis = experiment: Antibacterial activity against vancomycin-resistant Enterococcus faecalis ATCC 51575
Enterococcus faecium = experiment: Antibacterial activity against vancomycin-resistant Enterococcus faecium ATCC 700221
Bacillus subtilis = experiment: Antibacterial activity against Bacillus subtilis ATCC 23857
Bacillus cereus = experiment: Antibacterial activity against Bacillus cereus ATCC 11778
Bacteroides fragilis = experiment: Antibacterial activity against […] ATCC 23745
Clostridium perfringens = experiment: Antibacterial activity against Clostridium perfringens ATCC 10388
Candida albicans = experiment: Antifungal activity against Candida albicans ATCC 90028

Structure (SMILES) | MIC (Staphylococcus aureus [1]) [µg/mL] | MIC (Staphylococcus aureus [2]) [µg/mL] | MIC (Staphylococcus aureus [3]) [µg/mL] | MIC [4] [µg/mL] | MIC [5] [µg/mL] | MIC (Streptococcus pneumoniae) [µg/mL] | MIC (Enterococcus faecalis) [µg/mL] | MIC (Enterococcus faecium) [µg/mL] | MIC (Bacillus subtilis) [µg/mL] | MIC (Bacillus cereus) [µg/mL] | MIC (Bacteroides fragilis) [µg/mL] | MIC (Clostridium perfringens) [µg/mL] | MIC (Candida albicans) [µg/mL]
CC(C)NC(=N)c1ccc2[nH]c(-c3ccc(Oc4ccc(-c5nc6cc(C(=N)NC(C)C)ccc6[nH]5)nc4)cc3)nc2c1 | 0.5 (≈ 0.875 µM) | 0.5 (≈ 0.875 µM) | 0.5 (≈ 0.875 µM) | 0.12 (≈ 0.21 µM) | 0.12 (≈ 0.21 µM) | ≤ 0.06 | 0.12 (≈ 0.21 µM) | ≤ 0.06 | ≤ 0.06 | 0.12 (≈ 0.21 µM) | 32 (≈ 56 µM) | 0.5 (≈ 0.875 µM) | 4 (≈ 7 µM)
N=C(c1ccc2[nH]c(-c3ccc(Oc4ccc(-c5nc6cc(C(=N)N7CCC(N8CCCC8)CC7)ccc6[nH]5)cc4)cc3)nc2c1)N1CCC(N2CCCC2)CC1 | 8 (≈ 10.5 µM) | 4 (≈ 5.26 µM) | 4 (≈ 5.26 µM) | 1 (≈ 1.31 µM) | 1 (≈ 1.31 µM) | > 32 | 8 (≈ 10.5 µM) | 2 (≈ 2.63 µM) | 4 (≈ 5.26 µM) | 1 (≈ 1.31 µM) | > 32 | > 32 | 16 (≈ 21 µM)
CC(C)NC(=N)c1ccc2[nH]c(-c3ccc(Oc4ccc(-c5nc6cc(C(=N)NC(C)C)ccc6[nH]5)cn4)cc3)nc2c1 | 1 (≈ 1.75 µM) | 1 (≈ 1.75 µM) | 0.5 (≈ 0.875 µM) | 0.12 (≈ 0.21 µM) | 0.12 (≈ 0.21 µM) | 0.12 (≈ 0.21 µM) | 0.25 (≈ 0.437 µM) | ≤ 0.06 | 0.25 (≈ 0.437 µM) | 0.12 (≈ 0.21 µM) | > 32 | 2 (≈ 3.5 µM) | 2 (≈ 3.5 µM)
CC1CCN(C(=N)c2ccc3[nH]c(-c4ccc(Oc5ccc(-c6nc7cc(C(=N)N8CCC(C)CC8)ccc7[nH]6)cc5)cc4)nc3c2)CC1 | 0.25 (≈ 0.384 µM) | 0.25 (≈ 0.384 µM) | 0.25 (≈ 0.384 µM) | 0.12 (≈ 0.184 µM) | 0.12 (≈ 0.184 µM) | 0.12 (≈ 0.184 µM) | 0.5 (≈ 0.768 µM) | 0.25 (≈ 0.384 µM) | 0.12 (≈ 0.184 µM) | < 0.06 | 4 (≈ 6.15 µM) | 1 (≈ 1.54 µM) | 4 (≈ 6.15 µM)
N=C(c1ccc2[nH]c(-c3ccc(Oc4ccc(-c5nc6cc(C(=N)N7CCCCC7)ccc6[nH]5)cc4)cc3)nc2c1)N1CCCCC1 | 0.25 (≈ 0.401 µM) | 0.5 (≈ 0.803 µM) | 0.12 (≈ 0.193 µM) | < 0.06 | 0.12 (≈ 0.193 µM) | < 0.06 | 0.25 (≈ 0.401 µM) | 0.12 (≈ 0.193 µM) | < 0.06 | 0.25 (≈ 0.401 µM) | 2 (≈ 3.21 µM) | 0.25 (≈ 0.401 µM) | 8 (≈ 12.8 µM)
CC(C)NC(=N)c1ccc2[nH]c(-c3ccc(Oc4ccc(-c5nc6cc(C(=N)NC(C)C)ccc6[nH]5)c(C(F)(F)F)c4)cc3)nc2c1 | 0.5 (≈ 0.783 µM) | 0.5 (≈ 0.783 µM) | 0.25 (≈ 0.391 µM) | ≤ 0.06 | 0.12 (≈ 0.188 µM) | ≤ 0.06 | 0.12 (≈ 0.188 µM) | ≤ 0.06 | ≤ 0.06 | 0.12 (≈ 0.188 µM) | 8 (≈ 12.5 µM) | 0.25 (≈ 0.391 µM) | 4 (≈ 6.26 µM)
N=C(c1ccc2[nH]c(-c3ccc(Oc4ccc(-c5nc6cc(C(=N)N7CCCC7)ccc6[nH]5)cc4)cc3)nc2c1)N1CCCC1 | 0.25 (≈ 0.42 µM) | 0.5 (≈ 0.841 µM) | 0.25 (≈ 0.42 µM) | 0.12 (≈ 0.202 µM) | 0.12 (≈ 0.202 µM) | < 0.06 | 0.25 (≈ 0.42 µM) | < 0.06 | < 0.06 | 0.12 (≈ 0.202 µM) | 2 (≈ 3.36 µM) | 0.5 (≈ 0.841 µM) | 4 (≈ 6.73 µM)
CCC(C)NC(=N)c1ccc2[nH]c(-c3ccc(Oc4ccc(-c5nc6cc(C(=N)NC(C)CC)ccc6[nH]5)cc4)cc3)nc2c1 (stereo unspecified) | 0.5 (≈ 0.835 µM) | 0.5 (≈ 0.835 µM) | 0.25 (≈ 0.418 µM) | 0.12 (≈ 0.2 µM) | 0.12 (≈ 0.2 µM) | < 0.06 | 0.25 (≈ 0.418 µM) | < 0.06 | < 0.06 | < 0.06 | 16 (≈ 26.7 µM) | 0.5 (≈ 0.835 µM) | 2 (≈ 3.34 µM)
N=C(c1ccc2[nH]c(-c3ccc(Oc4ccc(-c5nc6cc(C(=N)N7CCOCC7)ccc6[nH]5)cc4)cc3)nc2c1)N1CCOCC1 | 1 (≈ 1.6 µM) | 0.5 (≈ 0.798 µM) | 0.5 (≈ 0.798 µM) | 0.25 (≈ 0.399 µM) | 0.5 (≈ 0.798 µM) | 0.5 (≈ 0.798 µM) | 0.5 (≈ 0.798 µM) | 0.5 (≈ 0.798 µM) | 0.5 (≈ 0.798 µM) | 0.12 (≈ 0.191 µM) | 8 (≈ 12.8 µM) | 2 (≈ 3.19 µM) | 16 (≈ 25.5 µM)
COc1cc(Oc2ccc(-c3nc4cc(C(=N)NC(C)C)ccc4[nH]3)c(Cl)c2)ccc1-c1nc2cc(C(=N)NC(C)C)ccc2[nH]1 | 0.25 (≈ 0.394 µM) | 0.5 (≈ 0.787 µM) | 0.25 (≈ 0.394 µM) | ≤ 0.06 | ≤ 0.06 | ≤ 0.06 | 0.25 (≈ 0.394 µM) | ≤ 0.06 | ≤ 0.06 | 0.12 (≈ 0.189 µM) | > 32 | 0.25 (≈ 0.394 µM) | 4 (≈ 6.3 µM)
CCN1CCN(C(=N)c2ccc3[nH]c(-c4ccc(Oc5ccc(-c6nc7cc(C(=N)N8CCN(CC)CC8)ccc7[nH]6)cc5)cc4)nc3c2)CC1 | 1 (≈ 1.47 µM) | 1 (≈ 1.47 µM) | 1 (≈ 1.47 µM) | 0.5 (≈ 0.734 µM) | 0.5 (≈ 0.734 µM) | 0.5 (≈ 0.734 µM) | 1 (≈ 1.47 µM) | 1 (≈ 1.47 µM) | 0.5 (≈ 0.734 µM) | 0.5 (≈ 0.734 µM) | 16 (≈ 23.5 µM) | 16 (≈ 23.5 µM) | 32 (≈ 47 µM)
COc1cc(Oc2ccc(-c3nc4cc(C(=N)NC(C)C)ccc4[nH]3)cc2)ccc1-c1nc2cc(C(=N)NC(C)C)ccc2[nH]1 | 0.5 (≈ 0.832 µM) | 0.5 (≈ 0.832 µM) | 0.25 (≈ 0.416 µM) | ≤ 0.06 | 0.12 (≈ 0.2 µM) | ≤ 0.06 | 0.5 (≈ 0.832 µM) | ≤ 0.06 | ≤ 0.06 | 0.12 (≈ 0.2 µM) | > 32 | 0.25 (≈ 0.416 µM) | 2 (≈ 3.33 µM)
